# Measured values published in paper PMC6555645 (Angewandte Chemie (International ed. in English), 2019).
# Columns and labels:
# [1] = target: T1, Tar14 (Saccharomonospora piscinae, UniProt W5VG40); test: in vitro chlorination assay; type: biochemical; settings: with flavin and a flavin reductase system; chloride
# T1 sequence (W5VG40 1-534): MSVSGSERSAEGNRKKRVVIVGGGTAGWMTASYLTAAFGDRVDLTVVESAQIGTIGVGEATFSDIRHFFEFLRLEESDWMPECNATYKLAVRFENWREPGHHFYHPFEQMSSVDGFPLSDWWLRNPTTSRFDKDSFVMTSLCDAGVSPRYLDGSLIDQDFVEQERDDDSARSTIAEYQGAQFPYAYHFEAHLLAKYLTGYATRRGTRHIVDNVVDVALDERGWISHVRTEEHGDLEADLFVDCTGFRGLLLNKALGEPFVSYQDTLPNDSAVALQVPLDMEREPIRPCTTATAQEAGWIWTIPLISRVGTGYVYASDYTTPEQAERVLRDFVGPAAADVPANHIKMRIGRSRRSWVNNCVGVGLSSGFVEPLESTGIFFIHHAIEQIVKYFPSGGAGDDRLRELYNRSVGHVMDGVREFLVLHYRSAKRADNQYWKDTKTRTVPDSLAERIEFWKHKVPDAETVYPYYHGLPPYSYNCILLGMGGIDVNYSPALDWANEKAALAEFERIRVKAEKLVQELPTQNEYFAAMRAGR
# [2] = target: T2, Tar13 (Saccharomonospora piscinae, UniProt W5VMS0); test: in vitro dioxygenase assay; type: biochemical; settings: heme-dependent TDO; O2
# T2 sequence (W5VMS0 1-236): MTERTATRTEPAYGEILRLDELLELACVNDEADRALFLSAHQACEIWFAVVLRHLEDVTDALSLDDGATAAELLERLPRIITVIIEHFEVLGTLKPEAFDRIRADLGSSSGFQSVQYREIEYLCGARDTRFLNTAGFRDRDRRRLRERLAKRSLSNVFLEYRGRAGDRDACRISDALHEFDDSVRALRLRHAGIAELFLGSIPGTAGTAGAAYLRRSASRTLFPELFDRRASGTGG
Km [1],Km [2],SMILES
12 µM,,"N[C@@H](Cc1c[nH]c2ccccc12)C(=O)O [compound 4, L-Trp]"
,112 µM,"N[C@@H](Cc1c[nH]c2cc(Cl)ccc12)C(=O)O [compound 7, L-6-Cl-Trp]"
